Data as given in article PMC3806459, “Cyclodextrin Formulation of the Marine Natural Product Pseudopterosin A Uncovers Optimal Pharmacodynamics in Proliferation Studies of Human Umbilical Vein Endothelial Cells” (Marine Drugs, 2013).
One block for each compound: values may come before it.

Assays:
[1] = log P by reverse phase HPLC; format: physicochemical; settings: RP-HPLC retention time vs toluene and triphenylene; n = 4; read-out: Direct log P
Excerpt: Reverse phase HPLC (RP-HPLC) has been previously used to measure the logarithm of the octanol-water partition coefficient (log P) of many compounds [11]. To obtain the log P values recorded herein, the retention times of the compounds of interest (Table 1) along with the retention times of internal standards (toluene and triphenylene) were utilized. The resulting quantities were then substituted into Equation 1: [drawing 1] (1) where the abbreviation tol refers to toluene, triph to triphenylene, and t to the retention time. Details concerning how this equation was derived have been described by Donovan and Pescatore.
HPLC recordings were achieved using a Hewlett Packard HP/Agilent 1100 HPLC system connected to a 1 cm × 4.6 mm, 5 µm aPHera™ C18 Polymer HPLC column (catalog number 56130AST). Colorimetric assays were performed on a Molecular Devices Vmax microplate reader.

early wound repair = tested on: early wound repair; set-up: method as in ref [7] = [7]; 7. Vimrx Pharmaceuticals New Drug Application VM 301 for Use in Phase I/IIA Clinical Trials IND 60,606 12 7 2000; settings: Phase II, double blind; ref [7]; cited from earlier work
wound healing = tested on: wound healing; set-up: method as in PMID 20363514; settings: topical; ref [5]; cited from earlier work
HUVEC cells [2] = tested on: HUVEC cells; set-up: method as in PMID 2875457, PMID 3574294, PMID 21556163; settings: all formulation systems tested; ref [1],[22],[23]; cited from earlier work
[3] = stability of the cyclodextrin inclusion complex by HPLC and NMR; format: physicochemical; settings: PsA inclusion complex in HPβCD; observed by HPLC and NMR
Description: Hydroxypropyl-beta-cyclodextrin (HPβCD) was added to DI-water at a concentration of 20% w/v. The mixture was then vortexed and sonicated briefly to yield a colorless, transparent, slightly viscous liquid. Separately, a given quantity of pseudopterosin A (PsA) was then solubilized in 100% methanol to yield a yellow, transparent liquid. An aliquot of this solution was then added to a culture tube and dried under inert atmosphere yielding an off-white solid. The previously prepared hydroxypropyl-beta-cyclodextrin solution was then added and vortexed for 10 min. The mixture was orbitally shaken at 4 °C for at least 7 days prior to use to ensure equilibration of the cyclodextrin drug complex. […] Stability was conserved at least 14 days, as observed by HPLC and NMR.

aqueous solubility = format: physicochemical; settings: without DMSO, Cremophor or cyclodextrin
Excerpt: […] Reverse phase HPLC was utilized as described in Section 3.3 above to confirm the quantity of solubilized drug that remained unchanged between formulations.

HUVEC cells [4] = test: WST-1 cell proliferation assay; format: cell-based, human
Description: Figure 4 PsA Potently Activates HUVEC Proliferation. […] Note saturation kinetics. Cytotoxicity is illustrated as a vertical dashed line at 1.5 × 10^−5 M in all vehicles tested. The percentage increase was calculated as [100 × (T/C)] where T/C is defined as […]. Data are presented as mean ± SEM (n = 16).
(§1) For each experiment cells were split at 80% confluence. All experiments were conducted between generations 4 and 10.
HUVEC were harvested from a T-75 plate by trypsinization and resuspended in EGM-2 complete culture media. Cells were plated at 500 cells per well of a 96-well plate and incubated overnight at 37 °C in a 5% CO2 atmosphere. EGM-2 complete culture media was removed and replaced with starvation media for 8 h. During this time, drug dilutions were prepared in growth factor depleted media. Starvation media was replaced with drug dilution in growth factor depleted media and incubated at 37 °C in a 5% CO2 atmosphere. After 41 h, 10 µL of WST-1 reagent was added to each well and incubated for 1 h. Plates were then read on a multiplate reader at 450 nm with background reference of 650 nm.

HUVEC cells [5] = test: scratch migration assay; format: cell-based, human; settings: 3.9 × 10^−8 M PsA in 0.05% HPβCD, depleted media, over 10 h; n = 16
Description: The in vitro scratch assay is commonly used to simulate cellular events that accompany the presence of a wound. Here, a thin scratch made in a cellular monolayer mimics the wound. The migration of cells in response to the scratch is then monitored using microscopic images at various time points to determine the rate of migration.
as §1
HUVEC were harvested from a T-75 plate by trypsinization and resuspended in EGM-2 complete culture media and were plated into T-25 cell culture flasks and allowed to grow to approx 90% confluence. EGM-2 complete culture media was then removed and replaced with starvation media for 8 h. A uniform scratch in the monolayer was then produced using a sterile pipette tip approximately 500 µm in width. Starvation media was replaced with 5 mL of either PsA in drug dosing media, or HPβCD in drug dosing media, or HPβCD in EGM-2 complete culture media. Microscopic images were taken at 400 times magnification every 5 min beginning at t = 0, and continuing until t = 10 h. Images were analyzed by determining the distance between cells on either side of scratch over time. Percent scratch closure was set to be a function of 1 − (average distance at each time point/average width of scratch).

[6] = tested on: PMA induced mouse ear edema; test: phorbol myristate acetate (PMA) induced mouse ear edema assay; format: in vivo; settings: topical 50 µg/ear with PMA 2 µg/ear, 3 h 20 min; (1/SA) in milligrams of inhibited edema per mol of drug; n = 10
Description: The compounds were then assessed using the standard phorbol myristate acetate (PMA) induced mouse ear edema assay to determine their anti-inflammatory specific activity. In this assay, the specific activity of the drug, SA, is expressed as log(1/SA). For the mouse ear model, the molar concentration of the drug was calculated using Equation 2: SA = (mol of drug) (∆ in edema from control)^−1(2) where the difference in edema from control, ∆, refers to the difference in the average weight of the mouse ear between treated and untreated biopsies. The outcome, (1/SA), is expressed in units of milligrams of inhibited edema per mol of drug. […] Note Table 1.
Male Swiss Webster albino mice were briefly anesthetized with halothane. Compounds were topically applied to the inside pinnae of the ears of the mice in a solution containing the edema-causing irritant PMA. PMA alone (2 µg/ear) or in combination with the test compound (50 µg/ear) were dissolved in acetone and applied to the left ears (5 mice per treatment group, n = 10/compound), and acetone alone was applied to all right ears. After 3 h and 20 min incubation, the mice were euthanized, the ears removed and a 6 mm diameter biopsy was taken from the center of each ear and immediately weighed. Edema was measured by subtracting the weight of the right ear (acetone control) from the weight of the left ear (treated). Compounds that were not soluble in 100% acetone were dissolved in 20% ethanol: 80% acetone v/v. Results were recorded as % decrease (inhibition) in edema relative to the PMA control group edema.

[7] = tested on: human adenosine A1 receptor; set-up: method as in doi:10.1016/j.tet.2009.09.021; settings: DMSO formulation; high amount of non-specific binding; ref [4]; cited from earlier work
[8] = tested on: human adenosine A2A receptor; set-up: method as in doi:10.1016/j.tet.2009.09.021; settings: DMSO formulation; high amount of non-specific binding; ref [4]; cited from earlier work
[9] = tested on: human adenosine A2B receptor; set-up: method as in doi:10.1016/j.tet.2009.09.021; settings: DMSO formulation; high amount of non-specific binding; ref [4]; cited from earlier work
[10] = tested on: human adenosine A3 receptor; set-up: method as in doi:10.1016/j.tet.2009.09.021; settings: DMSO formulation; high amount of non-specific binding; ref [4]; cited from earlier work
human neutrophils = tested on: human neutrophils; set-up: method as in ref [3] = [3]; 3. Luedke E.S. The Identification and Characterization of Pseudopterosins: Anti-Inflammatory Agents Isolated from the Gorgonian Coral Pseudopterogorgia elisabethae Ph.D. Thesis University of Californi; settings: in vitro; ref [3]; cited from earlier work
HUVEC cells [11] = test: HUVEC cytotoxicity elicited by drug formulations (LDH release); settings: vehicle alone: 0.02% DMSO, 0.016% Cremophor EL, 0.05% HPβCD; 42 h, growth factor depleted media, 37 °C; n = 4
Description: HUVEC LDH release with (A) 0.02% DMSO (B) 0.016% Cremophor EL and (C) 0.05% HPβCD after 42 h in growth factor depleted media at 37 °C. Data are presented as mean ± SEM (n = 4).
Dimethylsulfoxide (DMSO) is the most widely utilized solvent, and is used extensively in biological assays for attaining aqueous solubility for non-polar drug molecules. To determine the potential cytotoxic effects associated with DMSO, Cremophor EL, and HPβCD in a HUVEC system, we report three conditions that were chosen after considering the minimum required vehicle concentration for PsA (drug) solubility.
All cell culture experiments were performed using HUVEC cells initially seeded at 3 × 10^5 cells/75 cm^2 flask and fed every 1–2 days with fresh EGM-2 complete culture media (EBM-2 basal media with hVEGF, hFGF, hIGF, hEGF, hydrocortisone, ascorbic acid, heparin, 2% FBS, and GA-1000). For each experiment cells were split at 80% confluence. All experiments were conducted between generations 4 and 10. Starvation media consisted of EBM-2 basal media with 0.1% FBS, and GA-1000 (antibiotic mixture). Growth factor depleted media consisted of EBM-2 basal media with 2% FBS, hydrocortisone, ascorbic acid, heparin, and GA-1000.

chromatographic logP [1]: 4.37 ± 0.02
SMILES: COc1c(C)c2c3c(c1O[C@@H]1OC[C@@H](O)[C@H](O)[C@H]1O)[C@@H](C)CC[C@@H]3[C@@H](C)C[C@@H]2C=C(C)C [Analog 3, PsA methyl ether]
effect on early wound repair above vehicle alone (early wound repair): increased angiogenesis, granulation, and re-epithelialization
efficacy in wound healing (wound healing): topical efficacy

chromatographic logP [1]: 4.42 ± 0.06
stability conserved [3]: at least 14 days
solubility in an aqueous medium (aqueous solubility): low solubility
SMILES: CC(C)=C[C@H]1C[C@H](C)[C@H]2CC[C@H](C)c3c(O[C@@H]4OC[C@@H](O)[C@H](O)[C@H]4O)c(O)c(C)c1c32 [Analog 4, Pseudopterosin A]
cytotoxic concentration (HUVEC cells [2]): > 10 µM
increase in proliferation (HUVEC cells [4]; 1.0 × 10^−7 M PsA in HPβCD): 25%
increase in potency of HPβCD formulation over DMSO formulation (HUVEC cells [4]; HUVEC proliferation): 200 fold
increased HUVEC proliferation (HUVEC cells [4]; PsA in 0.016% Cremophor EL, 42 h): 15%
increase in proliferation (HUVEC cells [4]; PsA in 0.02% DMSO, 42 h, compared to DMSO alone): 30% ± 4.8%
Kd (HUVEC cells [4]; PsA in 0.05% HPβCD, from analysis of proliferation dose response): 14.5 nM
concentration at which cytotoxicity occurred (HUVEC cells [4]; all formulations/vehicles tested in HUVEC cells): ≥ 15 µM
rate of HUVEC cell migration (HUVEC cells [5]): 9.98 ± 1.2 µm h^−1
log(1/SA) (anti-inflammatory specific activity) [6]: 8.08 ± 0.01 mg/mol
binding affinity [7]: micromolar
binding affinity [8]: micromolar
binding affinity [9]: micromolar
binding affinity [10]: micromolar
effect on calcium ionophore induced degranulation and infiltration (human neutrophils): inhibited

chromatographic logP [1]: 4.59 ± 0.05
SMILES: CC(C)=C[C@H]1C[C@H](C)[C@H]2CC[C@H](C)c3c(O[C@@H]4O[C@@H](C)[C@@H](O)[C@@H](O)[C@@H]4O)c(O)c(C)c1c32 [Analog 5, iso-PsE]
log(1/SA) (anti-inflammatory specific activity) [6]: 8.02 ± 0.02 mg/mol

chromatographic logP [1]: 3.95 ± 0.02
SMILES: CC(C)=CC1CC(C)C2CCC(C)C3=C2C1=C(C)C(=O)C31OC2OC(C)C(O)C(O)C2O1 (stereo not shown) [Analog 1, pseudopterosin keto ketal]
log(1/SA) (anti-inflammatory specific activity) [6]: 7.63 ± 0.06 mg/mol

SMILES: C[S+](C)[O-] [DMSO, Dimethylsulfoxide]
LDH release (cytotoxicity) (HUVEC cells [11]): 18.4% ± 1.6%
